Data from patent US20220220152A1, “BIVALENT ANTAGONISTS OF INHIBITORS OF APOPTOSIS PROTEINS” (Hepagene Therapeutics (HK) Limited, priority 2019, published 2022).

What was measured:
[1] = target: T1, XIAP-BIR3 (Homo sapiens, UniProt P98170); experiment: XIAP-BIR3 fluorescence polarization binding assay; settings: FP, probe AbuRPFK-5FAM (SM5F) 5 nM, XIAP-BIR3 40 nM, 60 min at 25° C.
T1 construct: XIAP-BIR3; purchased Reaction Biology APT-11-374
Source text: (§1) IAPs are one main cause of cancer development and may result from overexpression of anti-apoptotic proteins. This protocol establishes three binding assays for […] Bir3 domain, cIAP1 and cIAP2 using FP (fluorescence polariation) technology. The fluorescence probe used is a synthetic peptide conjugated to 5-carboxyfluorescein (AbuRPFK-5FAM). The fluorescence polarization value (mP) was detected by Envision, which was used to reflect the binding degree of protein and fluorescent marker.
(§2) • a. Prepare 100 times of the final cpd concentration in appropriate tube and transfer 5 uL cpd to 45 μL 1× reaction buffer with 10% DMSO • b. The final reference cpd concentration is 10000, 3333.3, 1111.1, 370.4, 123.4, 41.2, 13.7, 4.57, 1.52, 0.51, 0.17 and 0 nM. So the 100 times of the concentration is 1000, 333.3, 111.1, 37.04, 12.34, 4.12, […], 0.15, 0.05, 0.017 and 0 μM. The final test cpds concentration is 3333.3, 1111.1, 370.4, 123.4, 41.2, 13.7, 4.57, 1.52, 0.51, 0.17, 0.057 and 0 nM. So the 100 times of the concentration is 333.3, 111.1, 37.04, 12.34, 4.12, […], 0.15, 0.05, 0.017, 0.0057 and […] • c. Add 8 μL/well each dose enzyme to 384 wen microplate (ProxiPlate-384 F Plus, 6008260) using multichannel pipette, prepared in Table 3. • d. Centrifuge at 1000 rpm • e. Add 2 μL/well cpd to 384 well microplate (ProxiPlate-384 F Plus, 6008260) using multichannel pipette, prepared in step a). • f. Centrifuge at 1000 rpm RT, 15 min. • g Start the assay by adding 10 uL/well substrate (prepared in Table 4) to the same 384 wen microplate using multichannel pipette. • h. Centrifuge at 1000 rpm. • i. Cover the assay plate and incubate for 60 min at 25° C. • j. Read on Envision 2104 for mP and plot the IC50s with mP values. • k. Data analysis: IC50s were determined based on a non-linear regression analysis of data collected.

[2] = target: T2, cIAP1-BIR3 (Homo sapiens, UniProt Q13490); experiment: cIAP1-BIR3 fluorescence polarization binding assay; settings: FP, probe AbuRPFK-5FAM (SM5F) 5 nM, cIAP1-BIR3 15 nM, 60 min at 25° C.
T2 construct: cIAP1-BIR3; purchased Reaction Biology APT-11-370
Source text: as §1, §2

[3] = target: T3, cIAP2-BIR3 (Homo sapiens, UniProt Q13489); experiment: cIAP2-BIR3 fluorescence polarization binding assay; settings: FP, probe AbuRPFK-5FAM (SM5F) 5 nM, cIAP2-BIR3 80 nM, 60 min at 25° C.
T3 construct: cIAP2-BIR3; purchased Reaction Biology APT-11-372
Source text: as §1, §2

T3 sequence (Q13489 238-349 limits assumed): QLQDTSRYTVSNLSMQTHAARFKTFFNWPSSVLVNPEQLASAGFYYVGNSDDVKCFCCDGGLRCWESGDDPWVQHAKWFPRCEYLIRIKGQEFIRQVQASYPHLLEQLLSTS
T1 sequence (P98170 241-356 limits assumed): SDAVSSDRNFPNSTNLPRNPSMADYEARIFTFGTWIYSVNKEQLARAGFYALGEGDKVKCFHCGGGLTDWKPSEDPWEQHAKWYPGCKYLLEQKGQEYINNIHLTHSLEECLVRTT
T2 sequence (Q13490 253-363 limits assumed): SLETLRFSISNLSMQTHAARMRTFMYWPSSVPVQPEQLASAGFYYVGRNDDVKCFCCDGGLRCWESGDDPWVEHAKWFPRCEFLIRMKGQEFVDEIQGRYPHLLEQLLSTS

CN[C@@H](C)C(=O)N[C@H](C(=O)N1CCC[C@H]1C(=O)N[C@@H]1CCCc2c(OCCCCCOc3cccc4c3CCC[C@H]4NC(=O)[C@@H]3CCCN3C(=O)[C@@H](NC(=O)[C@H](C)NC)C(C)C)cccc21)C(C)C [Compound I-G, (2S)-1-[(2S)-3-methyl-2-[(2S)-2-(methylamino)propanamido]butanoyl]-N-[(1R)-5-[(5-[[(5R)-5-[(2S)-1-[(2S)-3-methyl-2-[(2S)-2-(methylamino)propanamido]butanoyl]pyrrolidine-2-amido]-5,6,7,8-tetrahydronaphthalen-1-yl]oxy]pentyl)oxy]-1,2,3,4-tetrahydronaphthalen-1-yl]pyrrolidine-2-carboxamide]
IC50 [1]: 10 to 100 nM
IC50 [2]: 1 to 10 nM
IC50 [3]: 10 to 100 nM

CN[C@@H](C)C(=O)N[C@H](C(=O)N1CCC[C@H]1C(=O)N[C@@H]1CCCc2c(OCc3ccc(COc4cccc5c4CCC[C@H]5NC(=O)[C@@H]4CCCN4C(=O)[C@@H](NC(=O)[C@H](C)NC)C4CCCCC4)cc3)cccc21)C1CCCCC1 [Compound I-F, (2S)-1-[(2S)-2-cyclohexyl-2-[(2S)-2-(methylamino)propanamido]acetyl]-N-[(1R)-5-[[4-([[(5R)-5-[(2S)-1-[(2S)-2-cyclohexyl-2-[(2S)-2-(methylamino)propanamido]acetyl]pyrolidine-2-amido]-5,6,7,8-tetrahydronaphthalen-1-yl]oxy]methyl)phenyl]methoxy]-1,2,3,4-tetrahydronaphthalen-1-yl]pyrrolidine-2-carboxamide]
IC50 [1]: 100 to 1000 nM
IC50 [2]: 1 to 10 nM
IC50 [3]: 100 to 1000 nM

CN[C@@H](C)C(=O)N[C@H](C(=O)N1C[C@@H](O)C[C@H]1C(=O)N[C@@H]1CCCc2c(OCCCCCOc3cccc4c3CCC[C@H]4NC(=O)[C@@H]3C[C@H](O)CN3C(=O)[C@@H](NC(=O)[C@H](C)NC)C3CCCCC3)cccc21)C1CCCCC1 [Compound I-B, (2S,4S)-1-((S)-2-cyclohexyl-2-((S)-2-(methylamino)propanamido)acetyl)-N—((R)-5-((5-(((R)-5-((2S,4S)-1-((S)-2-cyclohexyl-2-((S)-2-(methylamino)propanamido)acetyl)-4-hydroxypyrrolidine-2-carboxamido)-5,6,7,8-tetrahydronaphthalen-1-yl)oxy)pentyl)oxy)-1,2,3,4-tetrahydronaphthalen-1-yl)-4-hydroxypyrrolidine-2-carboxamide]
IC50 [1]: 100 to 1000 nM
IC50 [2]: 1 to 10 nM
IC50 [3]: 10 to 100 nM

CN[C@@H](C)C(=O)N[C@H](C(=O)N1CCC[C@H]1C(=O)N[C@@H]1CCCc2c(OC/C=C/COc3cccc4c3CCC[C@H]4NC(=O)[C@@H]3CCCN3C(=O)[C@@H](NC(=O)[C@H](C)NC)C3CCCCC3)cccc21)C1CCCCC1 [Compound IV-A, (2S)-1-[(2S)-2-Cyclohexyl-2-[(2S)-2-(methylamino)propanamido]acetyl]-N-[(1R)-5-[[(2E)-4-[[(5R)-5-[(2S)-1-[(2S)-2-cyclohexyl-2-[(2S)-2-(methylamino)propanamido]acetyl]pyrrolidine-2-amido]-5,6,7,8-tetrahydronaphthalen-1-yl]oxy]but-2-en-1-yl]oxy]-1,2,3,4-tetrahydronaphthalen-1-yl]pyrrolidine-2-carboxamide]
IC50 [1]: 10 to 100 nM
IC50 [2]: 1 to 10 nM
IC50 [3]: 10 to 100 nM

CN[C@@H](C)C(=O)N[C@H](C(=O)N1CCC[C@H]1C(=O)N[C@@H]1CCCc2c(Nc3cccc4c3CCC[C@H]4NC(=O)[C@@H]3CCCN3C(=O)[C@@H](NC(=O)[C@H](C)NC)C(C)C)cccc21)C(C)C [Compound VI-B, (S)-1-(methyl-L-alanyl-L-valyl)-N—((R)-5-(((R)-5-((S)-1-(methyl-L-alanyl-L-valyl)pyrolidine-2-carboxamido)-5,6,7,8-tetrahydronaphthalen-1-yl)amino)-1,2,3,4-tetrahydronaphthalen-1-yl)pyrrolidine-2-carboxamide]
IC50 [1]: 10 to 100 nM
IC50 [2]: 1 to 10 nM
IC50 [3]: 10 to 100 nM

CN[C@@H](C)C(=O)N[C@H](C(=O)N1C[C@@H](O)C[C@H]1C(=O)N[C@@H]1CCCc2c(-c3ccc(-c4cccc5c4CCC[C@H]5NC(=O)[C@@H]4C[C@H](O)CN4C(=O)[C@@H](NC(=O)[C@H](C)NC)C4CCCCC4)cc3)cccc21)C1CCCCC1 [Compound III-K, (2S,4S)-1-[(2S)-2-cyclohexyl-2-[(2S)-2-(methylamino)propanamido]acetyl]-N-[(1R)-5-[4-[(5R)-5-[(2S,4S)-1-[(2S)-2-cyclohexyl-2-[(2S)-2-(methylamino)propanamido]acetyl]-4-hydroxypyrrolidine-2-amido]-5,6,7,8-tetrahydmnaphthalen-1-yl]phenyl]-1,2,3,4-tetrahydronaphthalen-1-yl]-4-hydroxypyrrolidine-2-carboxamide]
IC50 [1]: 10 to 100 nM
IC50 [2]: 1 to 10 nM
IC50 [3]: 1 to 10 nM

CN[C@@H](C)C(=O)N[C@@H](C)C(=O)N1CCC[C@H]1C(=O)N[C@@H]1CCCc2c(-c3cccc4c3CCC[C@H]4NC(=O)[C@@H]3CCCN3C(=O)[C@H](C)NC(=O)[C@H](C)NC)cccc21 [Compound V-H, (2S)-1-[(2S)-2-[(2S)-2-(methylamino)propanamido]propanoyl]-N-[(5R,5′R)-5′-[(2S)-1-[(2S)-2-[(2S)-2-(methylamino)propanamido]propanoyl]pyrrolidine-2-amido]-5H,5′H,6H,6′H,7H,7′H,8H,8′H-[1,1′-binaphthalen]-5-yl]pyrrolidine-2-carboxamide]
IC50 [1]: 100 to 1000 nM
IC50 [2]: 1 to 10 nM
IC50 [3]: 10 to 100 nM

CN[C@@H](C)C(=O)N[C@H](C(=O)N1CCC[C@H]1C(=O)N[C@@H]1CCc2c(-c3cccc4c3CC[C@H]4NC(=O)[C@@H]3CCCN3C(=O)[C@@H](NC(=O)[C@H](C)NC)C(C)C)cccc21)C(C)C [Compound V-G, (2S)-1-[(2S)-3-methyl-2-[(2S)-2-(methylamino)propanamido]butanoyl]-N-[(1R,1′R)-1′-[(2S)-1-[(2S)-3-methyl-2-[(2S)-2-(methylamino)propanamido]butanoyl]pyrrolidine-2-amido]-1H,1′H,2H,2′H,3H,3′H-[4,4′-biinden]-1-yl]pyrrolidine-2-carboxamide]
IC50 [1]: 10 to 100 nM
IC50 [2]: 1 to 10 nM
IC50 [3]: 10 to 100 nM

CN[C@@H](C)C(=O)N[C@H](C(=O)N1CCC[C@H]1C(=O)N[C@@H]1CCCc2c(OCCOCCOc3cccc4c3CCC[C@H]4NC(=O)[C@@H]3CCCN3C(=O)[C@@H](NC(=O)[C@H](C)NC)C(C)C)cccc21)C(C)C [Compound II-A, (2S)-1-[(2S)-3-Methyl-2-[(2S)-2-(methylamino)propanamido]butanoyl]-N-[(1R)-5-[2-(2-{[(5R)-5-[(2S)-1-[(2S)-3-methyl-2-[(2S)-2-(methylamino)propanamido]butanoyl]pyrrolidine-2-amido]-5,6,7,8-tetrahydronaphthalen-1-yl]oxy}ethoxy)ethoxy]-1,2,3,4-tetrahydronaphthalen-1-yl]pyrrolidine-2-carboxamide]
IC50 [1]: 100 to 1000 nM
IC50 [2]: 1 to 10 nM
IC50 [3]: 1 to 10 nM
